Experimental data published in patent US10702479B2, “Pharmaceutical formulation comprising sembragiline” (Hoffmann-La Roche Inc., priority 2015, dated 2020).
In brackets after ≈: the same amount, converted by molar mass. Read-outs that look alike come from different tables or passages of the source.

Experiment: Solubility of Sembragiline in media at 37° C.
Assay type: physicochemical
Conditions: for solubility at 4 h: read-out: Solubility of Sembragiline After 4 h

Dose Solubility Ratio (1 mg, Water): 25
Dose Solubility Ratio (1 mg, pH 1, HCl 0.1N): 25
Dose Solubility Ratio (1 mg, pH 4.5, 50 mM acetate buffer): 25
Dose Solubility Ratio (1 mg, pH 6.8, 50 mM phosphate buffer): 25
Dose Solubility Ratio (1 mg, pH 7.5, 50 mM phosphate buffer): 25
Dose Solubility Ratio (5 mg, Water): 125
Dose Solubility Ratio (5 mg, pH 1, HCl 0.1N): 125
Dose Solubility Ratio (5 mg, pH 4.5, 50 mM acetate buffer): 125
Dose Solubility Ratio (5 mg, pH 6.8, 50 mM phosphate buffer): 125
Dose Solubility Ratio (5 mg, pH 7.5, 50 mM phosphate buffer): 125
solubility at 4 h (0.1 N HCl, simulated gastric fluid, pH 1, HCl 0.1N): 40 µg/mL (≈ 117 µM)
Solubility of Sembragiline 250 mL (Water): 10 mg
solubility at 4 h (Water): 40 µg/mL (≈ 117 µM)
solubility at 4 h (aqueous buffer, pH 4.5, 50 mM acetate buffer): 40 µg/mL (≈ 117 µM)
solubility at 4 h (aqueous buffer, pH 6.8, 50 mM phosphate buffer): 40 µg/mL (≈ 117 µM)
solubility at 4 h (aqueous buffer, pH 7.5, 50 mM phosphate buffer): 40 µg/mL (≈ 117 µM)
Solubility of Sembragiline 250 mL (pH 1, HCl 0.1N): 10 mg
Solubility of Sembragiline 250 mL (pH 4.5, 50 mM acetate buffer): 10 mg
Solubility of Sembragiline 250 mL (pH 6.8, 50 mM phosphate buffer): 10 mg
Solubility of Sembragiline 250 mL (pH 7.5, 50 mM phosphate buffer): 10 mg
Compound: CC(=O)N[C@H]1CC(=O)N(c2ccc(OCc3cccc(F)c3)cc2)C1 [Sembragiline, N-[(3S)-1-[4-[(3-fluorophenyl)methoxy]phenyl]-5-oxo-pyrrolidin-3-yl]acetamide]
